Patent publication US11679102B2, “Method for inhibiting virus infection and replication” (Chang Gung University, priority 2020, dated 2023)

Key:
[1] = tested on: RD-sgACSL4^+/+ and RD-sgACSL4^−/− cells; test: Lipid peroxidation (BODIPY 581/591-C11) in RSL3-treated RD-sgACSL4+/+ control and RD-sgACSL4−/− knockout cells; settings: 1 μM RSL3, 36 hours, FIG. 9 upper panel
Procedure: Specifically, the RD-sgACSL4^−/− knockout and RD-sgACSL4^+/+ control cells were seeded in 12-well plates at a concentration of 1×10^5 cells per well.
(§1) Next, the treated cells and the infected cells were stained by incubating with 1 μM BODIPY™ 581/591-C11 (Invitrogen) at 37° C. for 30 minutes, and then collected using trypsin (Gibco). Thereafter, the stained cells were subjected to centrifugation at 300 g for 10 minutes to remove trypsin and the cell culture media, and then resuspended in 500 μL of fresh PBS. Subsequently, at least 10000 cells per sample were subjected to flow cytometry analysis using Attune NxT flow cytometer (Invitrogen), and FlowJo software was used for viewing and analyzing the thus obtained data. The BODIPY™ 581/591-C11 levels in the control groups (i.e., DMSO-treated cells and mock-infected cells) were set as 100%.

RD cells = test: Lipid peroxidation (BODIPY 581/591-C11, flow cytometry) in RSL3-treated RD cells pretreated with ferroptosis inhibitors
Procedure: as §1
Wild-type RD cells were seeded in 12-well plates at a concentration of 1×10^5 cells per well. […] Subsequently, the pretreated cells were treated with 1 μM of RSL3 for 36 hours, or the same amount of DMSO serving as control group for comparison purpose.
Thereafter, these cells were subjected to staining with BODIPY™ 581/591-C11 (Invitrogen) and flow cytometry analysis according to the experimental procedures as described in the preceding sub-section, entitled “A. Determining lipid peroxidation level in virus-infected cells,” of this Example. The BODIPY™ 581/591-C11 levels in the control groups (i.e., DMSO-treated cells and mock-infected cells) were set as 100%.

CV-A6-infected RD cells = type: cell-based, human; settings: wild-type RD cells pretreated 1 hour with ferrostatin-1 100 μM or troglitazone 20 μM, then CV-A6 m.o.i. 0.01 for 36 hours; vs mock-infected; FIG. 11 lower panel
CV-A6 [2] = type: cell-based, Coxsackie virus A6; settings: pretreated 1 hour at 0-120 μM, CV-A6 m.o.i. 0.01, 36 h.p.i.; FIG. 12
HCoV-229E [3] = test: Cell viability of HCoV-229E-infected LLC-MK2 cells (CellTiter96 Aqueous One Solution); type: cell-based, human coronavirus 229E; settings: pretreated 1 hour at 0-120 μM, HCoV-229E m.o.i. 0.01, 7 d.p.i.; FIG. 13
Procedure: Wild-type RD cells and LLC-MK2 cells were seeded at a concentration of 2000 cells per well into respective wells of 96-well plates containing DMEM and 10% FBS. […] Mock-infected RD and LLC-MK2 cells served as control groups. CV-A6-infected and mock-infected RD cells, and HCoV-229E-infected and mock-infected LLC-MK2 cells were subjected to cell viability determination using CellTiter96 Aqueous One Solution Cell Proliferation Assay (Promega).

CV-A6 [4] = type: cell-based, Coxsackie virus A6; settings: pretreated 1 hour with ferrostatin-1 100 μM or troglitazone 20 μM; m.o.i. 0.01; 24, 36, 48 h.p.i.; FIG. 14
HCoV-229E [5] = test: Virus titer of HCoV-229E in infected LLC-MK2 cells (viral plaque assay); settings: pretreated 1 hour with ferrostatin-1 40 μM or troglitazone 10 μM; m.o.i. 0.01; 1, 2, 3 d.p.i.; FIG. 15 upper panel
HCoV-OC43 = test: Virus titer of HCoV-OC43 in infected Vero E6 cells (viral plaque assay); settings: pretreated 1 hour with ferrostatin-1 40 μM or troglitazone 10 μM; m.o.i. 0.01; 1, 2, 3 d.p.i.; FIG. 15 lower panel

Row | SMILES | Induction of lipid peroxidation in cells with normal ACSL4 expression ([1]; RD-sgACSL4^+/+ control cells) | Induction of lipid peroxidation in ACSL4 knockout cells ([1]; RD-sgACSL4^−/− knockout cells) | Lipid peroxidation level in RSL3-treated cells compared with DMSO-treated cells (RD cells; wild-type RD cells, 1 μM RSL3, 36 hours, FIG. 11) | CV-A6-induced increase in lipid peroxidation level (relative BODIPY 581/591-C11 level) (CV-A6-infected RD cells) | Cell viability of CV-A6-infected RD cells (CV-A6 [2]) | Cell viability of HCoV-229E-infected LLC-MK2 cells (HCoV-229E [3]) | Viral yields (virus titer) of CV-A6 in infected RD cells vs DMSO control group (CV-A6 [4]) | Viral yields (virus titer) of HCoV-229E in infected LLC-MK2 cells vs DMSO control group (HCoV-229E [5]) | Viral yields (virus titer) of HCoV-OC43 in infected Vero E6 cells vs DMSO control group (HCoV-OC43) | RSL3-induced increase in lipid peroxidation level (relative BODIPY 581/591-C11 level) (RD cells; wild-type RD cells pretreated 1 hour with ferrostatin-1 100 μM or troglitazone 20 μM, then 1 μM RSL3 for 36 hours, vs DMSO control, FIG. 11 upper panel)
1 | COC(=O)c1ccc([C@@H]2c3[nH]c4ccccc4c3C[C@@H](C(=O)OC)N2C(=O)CCl)cc1 [RSL3] | effectively induce lipid peroxidation | unable to induce lipid peroxidation | significant increase | – | – | – | – | – | – | –
2 | CCOC(=O)c1ccc(NC2CCCCC2)c(N)c1 [ferrostatin-1] | – | – | – | significantly diminished | increasing cell viability | increasing cell viability | significantly lower | significantly lower | significantly lower | significantly diminished
